Measured values published in patent US20150105252A1, “SUBSTITUTED PYRAZOLES AS HERBICIDES” (E I DU PONT DE NEMOURS AND COMPANY, priority 2013, published 2015).

Columns and labels:
[1] = tested on: rice; test: Test B flood; type: in vivo, Oryza sativa; details: 250 g ai/ha, visual rating on 0 to 100 scale (0 no effect, 100 complete control), 13 to 15 days
In short: (§1)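 Plants were grown to the 2-leaf stage, then pots were flooded to 3 cm above the soil and compounds were applied directly into the paddy water. Water depth was held for the whole test; after 13 to 15 days in a greenhouse, injury was visually rated against untreated controls (0 = no effect, 100 = complete control).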

[2] = tested on: pigweed; test: Test C preemergence; type: in vivo, Amaranthus retroflexus
In short: (§2)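 Herbicidal effect is expressed as percent visual control (0–100) judged against untreated plants 13 to 15 days after treatment in the greenhouse. Preemergence pots contained seeds in a soil–sand blend; postemergence plants, 2–18 cm tall, grew in peat-based planting medium.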

[3] = tested on: foxtail, giant; test: Test A postemergence; type: in vivo, Setaria faberii
In short: (§3)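 Both timings tested concurrently in loam/sand soil: preemergence by directed soil spray, postemergence on plants of 2–10 cm at the one- to two-leaf stage. Greenhouse holding period was approximately 10 days before visual injury assessment (0–100, 0 = no effect).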

[4] = tested on: nutsedge, yellow; test: Test C postemergence; type: in vivo, Cyperus esculentus; details: for Plant response rating (scale of 0 to 100 where 0 is no effect and 100 is complete control), Nutsedge, Yellow: Postemergence, 31 g ai/ha, visually evaluated after 13 to 15 days; for Nutsedge, Yellow plant response rating / Plant response rating, Nutsedge, Yellow: postemergence; for Nutsedge, Yellow plant response rating: 62 g ai/ha, scale 0 to 100
In short: as §2

[5] = tested on: galium; test: Test C postemergence; type: in vivo, Galium aparine; details: for Plant response rating (scale of 0 to 100 where 0 is no effect and 100 is complete control), Galium: Postemergence, 31 g ai/ha, visually evaluated after 13 to 15 days; for Galium plant response rating / Plant response rating, Galium: postemergence; for Galium plant response rating: 62 g ai/ha, scale 0 to 100
In short: as §2

[6] = tested on: morningglory; test: Test C preemergence; type: in vivo, Ipomoea coccinea
In short: as §2

[7] = tested on: morningglory; test: Test A postemergence; type: in vivo, Ipomoea spp.
In short: as §3

[8] = tested on: barnyardgrass; test: Test A postemergence; type: in vivo, Echinochloa crus-galli
In short: as §3

[9] = tested on: barnyardgrass; test: Test B flood; type: in vivo, Echinochloa crus-galli; details: 250 g ai/ha, visual rating on 0 to 100 scale (0 no effect, 100 complete control), 13 to 15 days
In short: as §1

[10] = tested on: crabgrass, large; test: Test C postemergence; type: in vivo, Digitaria sanguinalis; details: for Plant response rating (scale of 0 to 100 where 0 is no effect and 100 is complete control), Crabgrass, Large: Postemergence, 31 g ai/ha, visually evaluated after 13 to 15 days; for Crabgrass, Large plant response rating / Plant response rating, Crabgrass, Large: postemergence; for Crabgrass, Large plant response rating: 62 g ai/ha, scale 0 to 100
In short: as §2

[11] = tested on: barnyardgrass; test: Test C preemergence; type: in vivo, Echinochloa crus-galli; details: preemergence; for Plant response rating, Barnyardgrass: 125 g ai/ha, scale 0 to 100, 0 = no effect, 100 = complete control
In short: as §2

[12] = tested on: crabgrass, large; test: Test A postemergence; type: in vivo, Digitaria sanguinalis
In short: as §3

[13] = tested on: corn; test: Test A preemergence; type: in vivo, Zea mays; details: preemergence; for Corn plant response rating (0 to 100 scale): 125 g ai/ha, visual injury approx. 10 days after treatment; for Corn plant response rating: 500 g ai/ha, visual injury after approx. 10 days, 0 to 100 scale (0 no effect, 100 complete control)
In short: as §3

[14] = tested on: foxtail, giant; test: Test A preemergence; type: in vivo, Setaria faberii; details: preemergence; for Foxtail, Giant plant response rating (0 to 100 scale): 125 g ai/ha, visual injury approx. 10 days after treatment; for Foxtail, Giant plant response rating: 500 g ai/ha, visual injury after approx. 10 days, 0 to 100 scale (0 no effect, 100 complete control)
In short: as §3

[15] = preemergence, 31 g ai/ha, visual rating, scale 0 to 100 (0 no effect, 100 complete control), 13 to 15 days
[16] = preemergence, 62 g ai/ha, scale 0 to 100 (0 no effect, 100 complete control), 13 to 15 days
[17] = preemergence, 125 g ai/ha, 13 to 15 days, scale 0 to 100, 0 = no effect, 100 = complete control
[18] = preemergence, 250 g ai/ha, scale 0 to 100, 0 is no effect, 100 is complete control
[19] = Postemergence, 500 g ai/ha, 0 to 100 scale (0 no effect, 100 complete control)
[20] = postemergence, 125 g ai/ha, about 10 days, visual rating on 0 to 100 scale (0 no effect, 100 complete control)
[21] = 250 g ai/ha, scale 0 to 100 (0 no effect, 100 complete control)
[22] = 125 g ai/ha, scale 0 to 100, 0 no effect, 100 complete control
[23] = 31 g ai/ha, visual rating, scale 0 to 100 (0 no effect, 100 complete control), 13 to 15 days
[24] = 62 g ai/ha, scale 0 to 100 (0 no effect, 100 complete control), 13 to 15 days
[25] = 250 g ai/ha, scale 0 to 100, 0 is no effect, 100 is complete control
[26] = Preemergence, rate head not shown (block before 16 g ai/ha), scale 0 to 100
[27] = Postemergence, 125 g ai/ha, 0 to 100 scale, 0 no effect, 100 complete control

In the case of `CCNC(=O)c1cc(CC)n(Cc2cc(C(F)(F)F)nn2C)n1` [Compound 154], the “Plant response rating, Rice” value [1] is reported as 0, the “Pigweed plant response rating” value [2, 15] is reported as 85 and the “Pigweed plant response rating” value [2, 16] is reported as 98. The “Plant response rating, Pigweed” value [2, 17] was 100, the “Pigweed plant response rating” value [2, 18] was 100 and the “Foxtail, Giant plant response rating” value [3, 19] was 100. For the same compound, the “Foxtail, Giant plant response rating” value [3, 20] was 100, the “Plant response rating (scale of 0 to 100 where 0 is no effect and 100 is complete control), Nutsedge, Yellow” value [4] was 0 and the “Nutsedge, Yellow plant response rating” value [4] was 0. For the same compound, the “Plant response rating, Nutsedge, Yellow” value [4, 21] was 5, the “Plant response rating, Nutsedge, Yellow” value [4, 22] was 5 and the “Plant response rating (scale of 0 to 100 where 0 is no effect and 100 is complete control), Galium” value [5] was 50. The “Galium plant response rating” value [5] was 50, the “Plant response rating, Galium” value [5, 21] was 85 and the “Plant response rating, Galium” value [5, 22] was 65. The “Morningglory plant response rating” value [6, 15] was 35, the “Morningglory plant response rating” value [6, 16] was 90 and the “Plant response rating, Morningglory” value [6, 17] was 100. For the same compound, the “Morningglory plant response rating” value [6, 18] was 100, the “Morningglory plant response rating” value [7, 19] was 100 and the “Morningglory plant response rating” value [7, 20] was 100. For the same compound, the “Barnyardgrass plant response rating” value [8, 19] was 100, the “Barnyardgrass plant response rating” value [8, 20] was 100 and the “Plant response rating, Barnyardgrass” value [9] was 45. For the same compound, the “Plant response rating (scale of 0 to 100 where 0 is no effect and 100 is complete control), Crabgrass, Large” value [10] was 5, the “Crabgrass, Large plant response rating” value [10] was 5 and the “Plant response rating, Crabgrass, Large” value [10, 21] was 10. The “Plant response rating, Crabgrass, Large” value [10, 22] was 5, the “Barnyardgrass plant response rating” value [11, 23] was 55 and the “Barnyardgrass plant response rating” value [11, 24] was 95. The “Plant response rating, Barnyardgrass” value ([11]; 13 to 15 days) was 100, the “Barnyardgrass plant response rating” value [11, 25] was 100 and the “Crabgrass, Large plant response rating” value [12, 19] was 100. The “Crabgrass, Large plant response rating” value [12, 20] was 100, the “Corn plant response rating (0 to 100 scale)” value [13] was 0 and the “Corn plant response rating” value [13] was 30. The “Foxtail, Giant plant response rating (0 to 100 scale)” value (“Foxtail … (0 to 100 scale)” for short) [14] was 100 and the “Foxtail, Giant plant response rating” value [14] was 100.

In the case of `CCCNC(=O)c1cc(CCF)n(Cc2ccnc(C(F)(F)F)c2)n1` [Compound 177], the “Plant response rating, Rice” value [1] is reported as 15, the “Pigweed plant response rating” value [2, 15] is reported as 100 and the “Pigweed plant response rating” value [2, 16] is reported as 100. The “Plant response rating, Pigweed” value [2, 17] was 100, the “Pigweed plant response rating” value [2, 18] was 100 and the “Foxtail, Giant plant response rating” value [3, 19] was 100. For the same compound, the “Foxtail, Giant plant response rating” value [3, 20] was 100, the “Plant response rating (scale of 0 to 100 where 0 is no effect and 100 is complete control), Nutsedge, Yellow” value [4] was 10 and the “Nutsedge, Yellow plant response rating” value [4] was 5. The “Plant response rating, Nutsedge, Yellow” value [4, 21] was 15, the “Plant response rating, Nutsedge, Yellow” value [4, 22] was 5 and the “Plant response rating (scale of 0 to 100 where 0 is no effect and 100 is complete control), Galium” value [5] was 50. The “Galium plant response rating” value [5] was 50, the “Plant response rating, Galium” value [5, 21] was 90 and the “Plant response rating, Galium” value [5, 22] was 80. The “Morningglory plant response rating” value [6, 15] was 25, the “Morningglory plant response rating” value [6, 16] was 95 and the “Plant response rating, Morningglory” value [6, 17] was 100. For the same compound, the “Morningglory plant response rating” value [6, 18] was 100, the “Morningglory plant response rating” value [7, 19] was 100 and the “Morningglory plant response rating” value [7, 20] was 100. The “Barnyardgrass plant response rating” value [8, 19] was 100, the “Barnyardgrass plant response rating” value [8, 20] was 100 and the “Plant response rating, Barnyardgrass” value [9] was 60. The “Plant response rating (scale of 0 to 100 where 0 is no effect and 100 is complete control), Crabgrass, Large” value [10] was 5, the “Crabgrass, Large plant response rating” value [10] was 5 and the “Plant response rating, Crabgrass, Large” value [10, 21] was 10. For the same compound, the “Plant response rating, Crabgrass, Large” value [10, 22] was 5, the “Barnyardgrass plant response rating” value [11, 23] was 65 and the “Barnyardgrass plant response rating” value [11, 24] was 100. For the same compound, the “Plant response rating, Barnyardgrass” value ([11]; 13 to 15 days) was 100, the “Barnyardgrass plant response rating” value [11, 25] was 100 and the “Crabgrass, Large plant response rating” value [12, 19] was 100. The “Crabgrass, Large plant response rating” value [12, 20] was 100, the “Corn plant response rating (0 to 100 scale)” value [13] was 80 and the “Corn plant response rating” value [13] was 90. The “Foxtail … (0 to 100 scale)” value [14] was 100 and the “Foxtail, Giant plant response rating” value [14] was 100.

With `CCc1cc(C(=O)NCC(F)(F)F)nn1Cc1ccnc(Br)c1` [Compound 224] the “Plant response rating, Rice” value [1] was 20, the “Plant response rating, Pigweed” value [2, 26] was 100 and the “Pigweed plant response rating” value [2, 16] was 100. The “Plant response rating, Pigweed” value [2, 17] was 100, the “Pigweed plant response rating” value [2, 18] was 100 and the “Foxtail, Giant plant response rating” value [3, 27] was 90. The “Foxtail, Giant plant response rating” value [3, 19] was 100, the “Plant response rating (scale of 0 to 100 where 0 is no effect and 100 is complete control), Nutsedge, Yellow” value [4] was 0 and the “Nutsedge, Yellow plant response rating” value [4] was 0. For the same compound, the “Plant response rating, Nutsedge, Yellow” value [4, 21] was 5, the “Plant response rating, Nutsedge, Yellow” value [4, 22] was 5 and the “Plant response rating (scale of 0 to 100 where 0 is no effect and 100 is complete control), Galium” value [5] was 50. For the same compound, the “Galium plant response rating” value [5] was 55, the “Plant response rating, Galium” value [5, 21] was 90 and the “Plant response rating, Galium” value [5, 22] was 40. The “Plant response rating, Morningglory” value [6, 26] was 5, the “Morningglory plant response rating” value [6, 16] was 10 and the “Plant response rating, Morningglory” value [6, 17] was 40. For the same compound, the “Morningglory plant response rating” value [6, 18] was 100, the “Morningglory plant response rating” value [7, 27] was 30 and the “Morningglory plant response rating” value [7, 19] was 100. The “Barnyardgrass plant response rating” value [8, 27] was 90, the “Barnyardgrass plant response rating” value [8, 19] was 100 and the “Plant response rating, Barnyardgrass” value [9] was 20. For the same compound, the “Plant response rating (scale of 0 to 100 where 0 is no effect and 100 is complete control), Crabgrass, Large” value [10] was 5, the “Crabgrass, Large plant response rating” value [10] was 5 and the “Plant response rating, Crabgrass, Large” value [10, 21] was 20. The “Plant response rating, Crabgrass, Large” value [10, 22] was 5, the “Barnyardgrass plant response rating” value [11, 23] was 25 and the “Barnyardgrass plant response rating” value [11, 24] was 40. The “Plant response rating, Barnyardgrass” value ([11]; 13 to 15 days) was 100, the “Barnyardgrass plant response rating” value [11, 25] was 100 and the “Crabgrass, Large plant response rating” value [12, 27] was 90. For the same compound, the “Crabgrass, Large plant response rating” value [12, 19] was 100, the “Corn plant response rating (0 to 100 scale)” value [13] was 30 and the “Corn plant response rating” value [13] was 90. The “Foxtail … (0 to 100 scale)” value [14] was 100 and the “Foxtail, Giant plant response rating” value [14] was 100.
